Here are results for 17 compounds from US10344019B2 (priority 2010, dated 2019).

Common to all, as to format: cell-based
Experiment [1] relates to HCV 1a RLuc cells (dicistronic genotype 1a H77 replicon, RLuc reporter). In words: microbe, parasite or virus in culture. The conditions noted are these: Hepatitis C virus, genotype 1a H77 RLuc replicon; read-out: 1a. The gist of the method: (§1)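 Renilla luciferase HCV replicon cells: dicistronic 1b Con1, 1a H77 or 2a JFH-1 replicons, or a JFH-1 chimera carrying J6 NS5A (M31 present). Compound in DMSO serial dilutions, 72 h incubation, then lysis and luciferase read. EC50 by non-linear regression.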

Experiment [2] deals with HCV 1b RLuc cells (dicistronic genotype 1b Con1 replicon, RLuc reporter). In words: microbe, parasite or virus in culture. As to conditions: Hepatitis C virus, read-out: 1b (nM). The gist of the method: as §1
Experiment [3] relates to HCV 2a JFH-1 Rluc cells (dicistronic genotype 2a JFH-1 replicon, RLuc reporter). Nature of the experiment: microbe, parasite or virus in culture. As to conditions: Hepatitis C virus, genotype 2a JFH-1 RLuc replicon; read-out: 2a JFH. An outline of the steps:
as §1
(In general: Replicon systems follow genome replication, usually without infectious particles.)

Experiment [4] has as its system HCV 2b Rluc cells (NS5A chimeric genotype 2a JFH-1 replicon with genotype 2b MD2b-1 NS5A gene, M31 present). Nature of the experiment: microbe, parasite or virus in culture. The conditions noted are these: Hepatitis C virus, read-out: 2b. The gist of the method:
(§2)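 Replicon cells stably carrying the listed RLuc-encoding dicistronic replicons were seeded and treated with DMSO serial dilutions of compound (10 mM stocks) diluted into culture medium. After 72 h, cells were lysed and Renilla luciferase activity measured. EC50 was derived by non-linear regression.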

Experiment [5] deals with HCV 4a Rluc cells (NS5A chimeric genotype 1b Con1 replicon with genotype 4a NS5A gene). Nature of the experiment: microbe, parasite or virus in culture. As to conditions: Hepatitis C virus, read-out: 4a. The gist of the method:
as §2

The subject of experiment [6] is HCV 2a Rluc cells (NS5A chimeric genotype 2a JFH-1 replicon with genotype 2a J6 strain NS5A gene, M31 present). In words: HCV replicon reporter assay, genotype 2a J6 (M31 present). As to conditions: Hepatitis C virus, read-out: 2a J6. As for the experimental part: Evaluation of cell-based anti-HCV activity: Antiviral potency (EC50) was determined using a Renilla luciferase (RLuc)-based HCV replicon reporter assay. To perform the assay for genotype 1 and 2a JFH-1, HCV 1b RLuc cells (harboring a dicistronic genotype 1b Con1 replicon that encodes a RLuc reporter), or HCV 1a RLuc cells (harboring a dicistronic genotype 1a H77 replicon that encodes a RLuc reporter), or HCV 2a JFH-1 Rluc cells (harboring a dicistronic genotype 2a JFH-1 replicon that encodes a RLuc reporter) were dispensed into 384-well plates. To perform the assay for genotype 2a (with M31 present) or 2b, HCV 2a Rluc or 2b Rluc cells (both with M31 present) harboring a dicistronic NS5A chimeric genotype 2a JFH-1 replicon that encodes a RLuc reporter and either genotype 2a J6 strain NS5A gene or genotype 2b MD2b-1 NS5A gene (based on Los Alamos HCV database isolates, both with M31 present) respectively, were dispensed into 384-well plates. To perform the assay for genotype 3 and 4, HCV 3a RLuc or 4a Rluc cells harboring a dicistronic NS5A chimeric genotype 1b Con1 replicon that encodes a RLuc reporter and either a consensus genotype 3a NS5A gene or genotype 4a NS5A gene (based on Los Alamos HCV database isolates) respectively, were dispensed into 384-well plates. Compounds were re-suspended in DMSO at a concentration of 10 mM and serially diluted in DMSO either manually or using an automated pipeting instrument. Serially diluted compounds were mixed with cell culture media and added to the seeded cells. […] 72 hours later, cells were lysed and Renilla luciferase activity quantified as recommended by the manufacturer (Promega-Madison, Wis.). Non-linear regression was performed to calculate EC50 values.

Experiment [7] has as its system HCV 3a RLuc cells (NS5A chimeric genotype 1b Con1 replicon with consensus genotype 3a NS5A gene). In words: microbe, parasite or virus in culture. As to conditions: Hepatitis C virus, read-out: 3a, genotype 3a NS5A chimeric replicon. An outline of the steps: as §2

With `COC[C@H]1C[C@@H](c2ncc(-c3ccc(-c4ccc(-c5cnc([C@@H]6C[C@H]7C[C@H]7N6C(=O)[C@H](NC(=O)C6CC6)c6ccccc6)[nH]5)cc4)cc3)[nH]2)N(C(=O)[C@@H](NC(=O)OC)C(C)C)C1` [Example 519], the EC50 is 0.001 to 0.999 nM in experiment [1]; 0.01 nM in experiment [2]; 0.001 to 0.999 nM in experiment [3]; 0.001 to 0.999 nM in experiment [4]; 0.001 to 0.99 nM in experiment [5]; 0.001 to 0.999 nM in experiment [6].

As to `COC(=O)N[C@H](C(=O)N1CCC[C@H]1c1ncc(-c2cc3c4c(c2)OCc2cc(-c5cnc([C@@H]6CCCN6C(=O)[C@H](NC(=O)C6CC6)c6ccccc6)[nH]5)cc(c2-4)OC3)[nH]1)C(C)C` [Example 520], the EC50 in experiment [1] was 0.001 to 0.999 nM; in experiment [2], 0.033 nM; in experiment [3], 0.001 to 0.999 nM; in experiment [4] it was 0.001 to 0.999 nM; in experiment [5], 0.001 to 0.99 nM; in experiment [6] it was 0.001 to 0.999 nM.

Take `COC(=O)N[C@H](C(=O)N1CCC[C@H]1c1ncc(-c2cc3c4c(c2)OCc2cc(-c5cnc([C@@H]6CCCN6C(=O)[C@H](NC(=O)C6CCC6)c6ccccc6)[nH]5)cc(c2-4)OC3)[nH]1)C(C)C` [Example 521]: the EC50 was 0.001 to 0.999 nM in experiment [1]; 0.028 nM in experiment [2]; 0.001 to 0.999 nM in experiment [3]; 0.001 to 0.999 nM in experiment [4]; 0.001 to 0.99 nM in experiment [5]; 0.001 to 0.999 nM in experiment [6].

For `COC[C@H]1C[C@@H](c2nc3ccc4cc5c(cc4c3[nH]2)OCc2cc(-c3ccc4nc([C@@H]6CCCN6C(=O)[C@@H](NC(=O)OC)C(C)C)[nH]c4c3)ccc2-5)N(C(=O)[C@H](NC(=O)OC)c2ccccc2)C1` [Example 556], the EC50 in experiment [1] is 0.001 to 0.999 nM; in experiment [3], 0.001 to 0.999 nM; in experiment [4], greater than 44 nM; in experiment [5], 0.001 to 0.99 nM; in experiment [6], greater than 44 nM.

As for `COC(=O)N[C@H](C(=O)N1[C@@H](C)CC[C@H]1c1ncc(-c2ccc3c(c2)COc2cc4c(ccc5nc([C@@H]6CCCN6C(=O)[C@H](N)c6ccccc6)[nH]c54)cc2-3)[nH]1)C(C)C` [Example 604], the EC50 was 0.001 to 0.999 nM in experiment [1]; 0.02 nM in experiment [2]; 0.001 to 0.999 nM in experiment [3]; 0.001 to 0.999 nM in experiment [4]; 0.001 to 0.999 nM in experiment [6].

As for `CC[C@H](C)[C@H](NC(=O)OC)C(=O)N1C[C@@H](COC)C[C@H]1c1ncc(-c2ccc3c(c2)COc2cc4c(ccc5nc([C@@H]6CC[C@H](C)N6C(=O)[C@@H](NC(=O)OC)C(C)C)[nH]c54)cc2-3)[nH]1` [Example 619], the EC50 was 0.001 to 0.999 nM in experiment [1]; 0.007 nM in experiment [2]; 0.001 to 0.999 nM in experiment [3]; 0.001 to 0.999 nM in experiment [4]; 0.001 to 0.999 nM in experiment [6].

With `COC[C@H]1C[C@@H](c2nc3ccc4cc5c(cc4c3[nH]2)OCc2cc(-c3cnc([C@@H]4C[C@H](C)CN4C(=O)C(NC(=O)OC)[C@H](C)OC)[nH]3)ccc2-5)N(C(=O)[C@@H](NC(=O)OC)[C@H](C)OC)C1` (stereo partly shown) [Example 620], the EC50 in experiment [1] was 0.001 to 0.999 nM; in experiment [2], 0.081 nM; in experiment [3] it was 0.001 to 0.999 nM; in experiment [4], 0.001 to 0.999 nM; in experiment [6] it was 0.001 to 0.999 nM.

Consider `COC(=O)NC(C(=O)N1C[C@@H](C)C[C@H]1c1nc2ccc3cc4c(cc3c2[nH]1)OCc1cc(-c2cnc([C@@H]3CC[C@H](C)N3C(=O)[C@@H](NC(=O)OC)C(C)C)[nH]2)ccc1-4)[C@H](C)OC` (stereo partly shown) [Example 621], for which the EC50 is 0.001 to 0.999 nM in experiment [1]; 0.013 nM in experiment [2]; 0.001 to 0.999 nM in experiment [3]; 0.001 to 0.999 nM in experiment [4]; 0.001 to 0.999 nM in experiment [6].

With `CC[C@H](C)[C@H](NC(=O)OC)C(=O)N1C[C@@H](COC)C[C@H]1c1nc2ccc3cc4c(cc3c2[nH]1)OCc1cc(-c2cnc([C@@H]3CC[C@H](C)N3C(=O)[C@@H](NC(=O)OC)C(C)C)[nH]2)ccc1-4` [Example 623], the EC50 in experiment [1] is 0.001 to 0.999 nM; in experiment [2] it was 0.006 nM; in experiment [3], 0.001 to 0.999 nM; in experiment [4] it was 0.001 to 0.999 nM; in experiment [6] it was 0.001 to 0.999 nM.

Consider `COC(=O)N[C@H](C(=O)N1C[C@@H](COC(F)F)C[C@H]1c1nc2ccc3cc4c(cc3c2[nH]1)OCc1cc(-c2cnc([C@@H]3CC[C@H](C)N3C(=O)[C@@H](NC(=O)OC)C(C)C)[nH]2)ccc1-4)C(C)C` [Example 631], for which the EC50 in experiment [1] is 0.001 to 0.999 nM; in experiment [2], 0.006 nM; in experiment [3], 0.001 to 0.999 nM; in experiment [4], 0.001 to 0.999 nM; in experiment [7], greater than 5 nM; in experiment [6] it was 0.001 to 0.999 nM.

As for `COC(=O)N[C@H](C(=O)N1C[C@@H](COC(F)F)C[C@H]1c1ncc(-c2ccc3c(c2)COc2cc4c(ccc5nc([C@@H]6CC[C@H](C)N6C(=O)[C@@H](NC(=O)OC)C(C)C)[nH]c54)cc2-3)[nH]1)C(C)C` [Example 632], the EC50 in experiment [1] is 0.001 to 0.999 nM; in experiment [2], 0.008 nM; in experiment [3] it was 0.001 to 0.999 nM; in experiment [4], 0.001 to 0.999 nM; in experiment [6], 0.001 to 0.999 nM.

Take `COC[C@H]1C[C@@H](c2ncc(-c3ccc4c(c3)COc3cc5c(ccc6nc([C@@H]7C[C@H](COC(F)F)CN7C(=O)[C@@H](NC(=O)OC)C(C)C)[nH]c65)cc3-4)[nH]2)N(C(=O)[C@@H](NC(=O)OC)C(C)C)C1` [Example 634]: the EC50 is 0.001 to 0.999 nM in experiment [1]; 0.015 nM in experiment [2]; 0.001 to 0.999 nM in experiment [3]; 0.001 to 0.999 nM in experiment [4]; 0.001 to 0.999 nM in experiment [6].

On to `CC[C@H](C)[C@H](NC(=O)OC)C(=O)N1[C@@H](C)CC[C@H]1c1ncc(-c2ccc3c(c2)COc2cc4c(ccc5nc([C@@H]6C[C@H](COC)CN6C(=O)[C@@H](NC(=O)OC)C(C)C)[nH]c54)cc2-3)[nH]1` [Example 638], for which the EC50 in experiment [1] is 0.001 to 0.999 nM; in experiment [2] it was 0.009 nM; in experiment [3], 0.001 to 0.999 nM; in experiment [4], 0.001 to 0.999 nM; in experiment [6], 0.001 to 0.999 nM.

In the case of `CCC(C)[C@H](NC(=O)OC)C(=O)N1C[C@@H](COC)C[C@H]1c1nc2ccc3cc4c(cc3c2[nH]1)OCc1cc(-c2cnc([C@@H]3C[C@H](C)CN3C(=O)[C@@H](NC(=O)OC)[C@@H](C)CC)[nH]2)ccc1-4` (stereo partly shown) [Example 640], the EC50 was 0.001 to 0.999 nM in experiment [1]; 0.015 nM in experiment [2]; 0.001 to 0.999 nM in experiment [3]; 0.001 to 0.999 nM in experiment [4]; 0.001 to 0.999 nM in experiment [6].

With `CC[C@H](C)[C@H](NC(=O)OC)C(=O)N1C[C@@H](C)C[C@H]1c1ncc(-c2ccc3c(c2)COc2cc4c(ccc5nc([C@@H]6C[C@H](COC)CN6C(=O)[C@@H](NC(=O)OC)[C@@H](C)OC)[nH]c54)cc2-3)[nH]1` [Example 641], the EC50 was 0.001 to 0.999 nM in experiment [1]; 0.03 nM in experiment [2]; 0.001 to 0.999 nM in experiment [3]; 0.001 to 0.999 nM in experiment [4]; 0.001 to 0.999 nM in experiment [6].

Take `CC[C@H](C)[C@H](NC(=O)OC)C(=O)N1C[C@@H](C)C[C@H]1c1ncc(-c2ccc3c(c2)COc2cc4c(ccc5nc([C@@H]6C[C@H](COC)CN6C(=O)[C@@H](NC(=O)OC)C(C)C)[nH]c54)cc2-3)[nH]1` [Example 642]: the EC50 in experiment [1] was 0.001 to 0.999 nM; in experiment [2], 0.014 nM; in experiment [3], 0.001 to 0.999 nM; in experiment [4], 0.001 to 0.999 nM; in experiment [6], 0.001 to 0.999 nM.

On to `CC[C@@H](C)[C@H](NC(=O)OC)C(=O)N1C[C@@H](COC)C[C@H]1c1nc2ccc3cc4c(cc3c2[nH]1)OCc1cc(-c2cnc([C@@H]3CC[C@H](C)N3C(=O)[C@@H](NC(=O)OC)[C@H](C)CC)[nH]2)ccc1-4` [Example 643], for which the EC50 in experiment [1], in experiment [3], in experiment [4] and in experiment [6] was 0.001 to 0.999 nM in each case.
